# Assay results: ChEMBL document CHEMBL1201862, “PubChem BioAssay data set” (2004)
# Calls of active or inactive are those of the source.
# Key:
# cells [1] = type: functional
# [2] = cytotoxicity toward NIH3T3 fibroblasts, dose response, counter-screen, cell-based, ATP luminescence, mouse fibroblasts (AID 2010); type: functional;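 note: cells exposed to compound for about 90 hours before reading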
# Mu-type opioid receptor = Mu-type opioid receptor (Homo sapiens, UniProt P35372); test: (§1) Counterscreen for agonists of heterodimerization of the mu 1 (OPRM1) and delta 1 (OPRD1) opioid receptors: Luminescence-based cell-based high throughput dose response assay to identify agonists of OPRM1 homodimerization.; type: functional
# [3] = target: Delta-type opioid receptor (Homo sapiens, UniProt P41143); test: as §1, with “of OPRD1” for “of OPRM1”, “homodimerization. [Related pubchem assays (depositor defined):AID504326, AID504355, AID504692, AID504904, AID504905]” for “homodimerization.”; type: functional
# Sequence of Delta-type opioid receptor (P41143 whole entry): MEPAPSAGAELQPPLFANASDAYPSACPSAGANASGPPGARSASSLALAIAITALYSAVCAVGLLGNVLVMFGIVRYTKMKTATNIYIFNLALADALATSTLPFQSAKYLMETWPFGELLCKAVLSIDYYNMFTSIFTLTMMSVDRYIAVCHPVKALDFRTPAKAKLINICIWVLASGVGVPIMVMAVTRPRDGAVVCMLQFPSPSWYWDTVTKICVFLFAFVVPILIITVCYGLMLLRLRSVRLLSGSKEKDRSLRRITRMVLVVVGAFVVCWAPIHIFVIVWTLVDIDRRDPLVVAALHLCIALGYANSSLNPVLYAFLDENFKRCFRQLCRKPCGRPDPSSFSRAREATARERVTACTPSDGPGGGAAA
# [4] = HepG2 cell cytotoxicity, dose response, cytotoxicity control for Shn3 inhibitor project, CellTiter-Glo, cherry-picked (AID 624134); type: functional, cell-based
# [5] = HepG2 cell cytotoxicity, dose response, cytotoxicity control for non-replicating M. tuberculosis project (AID 489018); type: functional; settings: Mycobacterium tuberculosis
# [6] = Shn3 3'UTR reporter inhibitors, dose response, cell-based, Clone20 osteoblasts, firefly luciferase, cherry-picked (AID 624132); type: functional;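 note: firefly luciferase luminescence from reporter carrying the Shn3 3'UTR in osteoblasts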
# [7] = Vero E6 cell cytotoxicity, dose response, cytotoxicity control for non-replicating M. tuberculosis project, secondary assay (AID 492998); type: functional, VeroE6; settings: Vero C1008
# [8] = inhibitors of intracellular T. cruzi replication, confirmation, NIH3T3 host cells, beta-gal luminescence (AID 2044); type: functional, cell-based;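 note: intracellular parasites grown in NIH/3T3 mouse fibroblasts as host cells; luminescent beta-galactosidase reporter signal from transgenic T. cruzi replicating inside host cells; inhibitors lower the luminescence signal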
# [9] = control 3'UTR Renilla luciferase suppression, dose response, counter-screen for Shn3 inhibitor project, cell-based, Clone20-Shn3RL, cherry-picked (AID 624133); type: functional
# [10] = target: 5-hydroxytryptamine receptor 5A (Homo sapiens, UniProt P47898); test: Counterscreen for agonists of OPRM1-OPRD1 heterodimerization: luminescence-based cell-based high throughput dose response assay to identify agonists of 5-hydroxytryptamine (serotonin) 5A receptor (HTR5A). [Related pubchem assays (depositor defined):AID504326, AID504355, AID504692, AID504904, AID504905]; type: functional
# Sequence of 5-hydroxytryptamine receptor 5A (P47898 whole entry): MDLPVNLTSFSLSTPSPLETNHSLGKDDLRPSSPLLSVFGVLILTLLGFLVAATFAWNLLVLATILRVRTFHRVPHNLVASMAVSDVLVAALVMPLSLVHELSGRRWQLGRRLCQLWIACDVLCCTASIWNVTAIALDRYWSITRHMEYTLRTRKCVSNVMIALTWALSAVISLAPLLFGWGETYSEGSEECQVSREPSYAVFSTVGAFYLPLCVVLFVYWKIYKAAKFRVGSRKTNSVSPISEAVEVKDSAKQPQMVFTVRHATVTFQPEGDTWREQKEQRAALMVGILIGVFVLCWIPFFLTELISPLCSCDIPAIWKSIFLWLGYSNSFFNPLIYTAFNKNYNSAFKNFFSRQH
# [11] = target: T1, Short transient receptor potential channel 4 (Mus musculus, UniProt Q9QUQ5); test: mouse TRPC4 channel inhibitors, dose response, cell-based, HEK293 TRPC4/mu-opioid, Fluo-4 calcium (AID 434942); type: functional;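 note: potency of inhibitors blocking the TRPC4 calcium response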
# T1 sequence (Q9QUQ5 whole entry): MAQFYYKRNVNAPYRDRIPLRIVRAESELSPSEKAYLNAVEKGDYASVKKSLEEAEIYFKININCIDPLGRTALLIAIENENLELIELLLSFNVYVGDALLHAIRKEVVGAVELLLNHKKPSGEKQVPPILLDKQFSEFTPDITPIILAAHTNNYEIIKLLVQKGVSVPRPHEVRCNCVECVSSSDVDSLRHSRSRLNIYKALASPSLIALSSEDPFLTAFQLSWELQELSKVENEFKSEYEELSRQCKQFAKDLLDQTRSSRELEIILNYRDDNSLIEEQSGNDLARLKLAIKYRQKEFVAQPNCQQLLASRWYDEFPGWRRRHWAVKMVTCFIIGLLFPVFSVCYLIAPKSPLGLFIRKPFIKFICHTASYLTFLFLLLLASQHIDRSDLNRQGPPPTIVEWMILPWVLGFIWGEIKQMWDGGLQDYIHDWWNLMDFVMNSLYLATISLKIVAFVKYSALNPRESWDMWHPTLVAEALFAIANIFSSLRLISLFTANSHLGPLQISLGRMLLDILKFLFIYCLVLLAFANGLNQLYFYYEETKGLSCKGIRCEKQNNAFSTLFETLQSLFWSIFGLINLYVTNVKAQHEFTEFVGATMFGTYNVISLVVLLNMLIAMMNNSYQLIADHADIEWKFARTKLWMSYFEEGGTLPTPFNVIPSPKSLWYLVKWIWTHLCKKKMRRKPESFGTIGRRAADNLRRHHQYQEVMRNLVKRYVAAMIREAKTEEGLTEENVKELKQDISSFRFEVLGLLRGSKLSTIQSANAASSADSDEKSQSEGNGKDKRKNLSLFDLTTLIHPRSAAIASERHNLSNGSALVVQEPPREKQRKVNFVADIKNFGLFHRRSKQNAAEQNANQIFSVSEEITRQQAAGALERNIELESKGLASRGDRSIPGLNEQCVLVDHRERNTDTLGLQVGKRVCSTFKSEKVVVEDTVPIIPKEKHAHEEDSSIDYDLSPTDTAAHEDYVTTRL
# [12] = target: T1, Short transient receptor potential channel 4; test: mouse TRPC4 channel activators, dose response, cell-based, HEK293 TRPC4/mu-opioid, Fluo-4 calcium (AID 434937); type: functional
# [13] = THP-1 cell cytotoxicity, dose response, cytotoxicity control for non-replicating M. tuberculosis project (AID 489025); type: functional
# [14] = target: Voltage-gated inwardly rectifying potassium channel KCNH2 (Homo sapiens, UniProt Q12809); settings: Potency;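 note: confirmatory quantitative high-throughput screen measuring inhibition of hERG channel activity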
# Sequence of Voltage-gated inwardly rectifying potassium channel KCNH2 (Q12809 whole entry): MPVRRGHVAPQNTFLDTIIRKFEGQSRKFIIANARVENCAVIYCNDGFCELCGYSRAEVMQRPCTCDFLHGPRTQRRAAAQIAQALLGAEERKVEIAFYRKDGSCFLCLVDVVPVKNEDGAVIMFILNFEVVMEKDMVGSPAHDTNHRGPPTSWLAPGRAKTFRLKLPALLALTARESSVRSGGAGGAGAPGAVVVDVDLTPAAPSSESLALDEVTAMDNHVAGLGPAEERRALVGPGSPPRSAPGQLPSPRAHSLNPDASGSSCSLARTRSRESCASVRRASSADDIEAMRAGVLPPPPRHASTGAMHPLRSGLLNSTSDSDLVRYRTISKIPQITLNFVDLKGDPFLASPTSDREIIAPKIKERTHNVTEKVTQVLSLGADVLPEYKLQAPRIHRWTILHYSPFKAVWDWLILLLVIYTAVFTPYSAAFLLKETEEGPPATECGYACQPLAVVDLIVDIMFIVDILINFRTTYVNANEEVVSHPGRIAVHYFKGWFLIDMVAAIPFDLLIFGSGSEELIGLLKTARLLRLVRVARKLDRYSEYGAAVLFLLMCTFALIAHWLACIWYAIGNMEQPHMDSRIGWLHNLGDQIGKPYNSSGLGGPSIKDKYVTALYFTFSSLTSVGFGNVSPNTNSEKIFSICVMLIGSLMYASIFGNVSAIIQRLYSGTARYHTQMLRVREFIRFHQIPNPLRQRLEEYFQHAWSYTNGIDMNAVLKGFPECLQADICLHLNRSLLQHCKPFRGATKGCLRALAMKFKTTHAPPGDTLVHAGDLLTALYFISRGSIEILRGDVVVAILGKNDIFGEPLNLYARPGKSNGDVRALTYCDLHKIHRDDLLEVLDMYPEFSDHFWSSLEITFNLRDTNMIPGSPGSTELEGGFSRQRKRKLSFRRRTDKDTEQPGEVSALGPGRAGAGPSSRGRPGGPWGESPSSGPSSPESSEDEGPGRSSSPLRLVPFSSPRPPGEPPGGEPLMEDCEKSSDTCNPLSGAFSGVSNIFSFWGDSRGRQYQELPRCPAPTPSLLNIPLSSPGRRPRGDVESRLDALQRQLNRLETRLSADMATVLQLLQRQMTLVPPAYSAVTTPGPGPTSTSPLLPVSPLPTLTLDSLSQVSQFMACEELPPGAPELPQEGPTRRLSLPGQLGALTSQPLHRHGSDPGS
# HEK293 [15] = test: cells; settings: Homo sapiens
# HEK293 [16] = test: cells; settings: Homo sapiens; remark: listed apart in the source
# [17] = target: T2, Calpain-2 catalytic subunit (Sus scrofa, UniProt P43367); test: pig calpain II inhibitor potency, dose response, biochemical, fluorogenic peptide substrate (AID 1420); type: functional
# T2 sequence (P43367 whole entry): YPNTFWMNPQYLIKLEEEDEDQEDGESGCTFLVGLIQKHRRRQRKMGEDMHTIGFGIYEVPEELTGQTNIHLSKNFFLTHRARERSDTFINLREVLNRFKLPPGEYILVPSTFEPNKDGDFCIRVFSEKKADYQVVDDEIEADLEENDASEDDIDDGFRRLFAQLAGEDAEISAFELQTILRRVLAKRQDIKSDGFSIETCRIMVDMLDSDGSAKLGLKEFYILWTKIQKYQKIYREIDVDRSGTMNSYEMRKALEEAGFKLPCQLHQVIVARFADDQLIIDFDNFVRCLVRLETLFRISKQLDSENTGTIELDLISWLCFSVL
# HeLa = test: HeLa cell cytotoxicity, dose response, cytotoxicity control for MITF activator project, CellTiter-Glo luminescence, cherry-pick samples (AID 540259); type: functional, cell-based; settings: Homo sapiens
# BJ [18] = test: cells; type: functional, cell-based; settings: Homo sapiens
# BJ [19] = test: cytotoxicity toward Ras-transformed BJeLR fibroblasts, dose response, cell-based, alamar blue fluorescence, cherrypicked samples (AID 2631); type: functional; settings: Homo sapiens;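 note: confirmatory dose-response assay in RAS-dependent BJ fibroblasts engineered with TERT, LT and ST, with cytotoxicity read by fluorescence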
# [20] = Counterscreen for AddAB inhibitors: absorbance-based bacterial cell-based high throughput dose response assay for inhibitors of bacterial viability. [Related pubchem assays (depositor defined):AID435030, AID449728, AID449731, AID488942, AID488955, AID488956]; type: functional
# [21] = target: Heat shock protein HSP 90-alpha (Homo sapiens, UniProt P07900); type: functional, organism-based
# BJ [22] = test: cytotoxicity toward BJ-TERT-LT-ST fibroblasts, dose response, cell-based, RAS-independent, luminescence (AID 1935); type: functional; settings: Homo sapiens;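 note: BJ fibroblasts immortalized with TERT plus LT and ST oncogenes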
# BJ [23] = test: cytotoxicity toward BJ-TERT fibroblasts, dose response, cell-based, RAS-independent, luminescence (AID 1933); type: functional; settings: Homo sapiens
# [24] = luciferase reporter signal reduction – luminescence, H4-C neuroglioblastoma cells, dose response (AID 2458); type: functional, cell-based;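 note: H4 neuroglioblastoma cells stably carrying a luciferase reporter gene fusion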
# [25] = test system: Streptococcus sp. 'group A'; test: growth inhibition of control SK(-) GAS strain, dose response, counter-screen for streptokinase expression inhibitor project, luminescence, kanamycin, BacTiterGlo, confirmation (AID 1900); type: functional, organism-based
# [26] = cytotoxicity toward DRD oncogenic fibroblasts, dose response, cell-based, non-viral oncogenic, luminescence (AID 1934); type: functional; settings: Homo sapiens
# [27] = target: T3, Heat shock factor protein 1 (Mus musculus, UniProt P38532); test: HSF1 potentiators in luciferase reporter cells, confirmation, cell-based, NIH3T3, luminescence, dose retest (AID 435004); type: functional;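 note: stress induced by proteasome inhibitor MG132 added 30 min after compound; luciferase reporter driven by HSF1 response element in NIH3T3 cells; actives raise luminescence as potentiators of the MG132 stress response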
# T3 sequence (P38532 whole entry): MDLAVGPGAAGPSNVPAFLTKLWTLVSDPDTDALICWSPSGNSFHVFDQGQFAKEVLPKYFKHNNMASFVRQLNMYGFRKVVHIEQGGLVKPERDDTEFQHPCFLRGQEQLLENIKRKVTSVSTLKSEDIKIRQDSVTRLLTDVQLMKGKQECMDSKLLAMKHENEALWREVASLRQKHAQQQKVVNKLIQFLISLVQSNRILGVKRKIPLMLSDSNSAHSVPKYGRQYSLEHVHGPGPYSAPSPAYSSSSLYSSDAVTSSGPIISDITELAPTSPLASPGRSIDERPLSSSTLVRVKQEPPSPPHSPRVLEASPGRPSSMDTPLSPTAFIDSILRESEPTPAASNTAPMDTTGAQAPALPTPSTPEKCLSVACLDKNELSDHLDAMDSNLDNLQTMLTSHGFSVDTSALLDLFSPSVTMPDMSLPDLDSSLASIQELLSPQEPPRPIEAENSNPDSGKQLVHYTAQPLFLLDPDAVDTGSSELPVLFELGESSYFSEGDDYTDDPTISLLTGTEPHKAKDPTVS
# [28] = Luminescence Cell-Based Dose Response HTS to Identify Inhibitors of 5'UTR Stem-Loop Driven Prion Protein mRNA Translation in H4 Neuroglioblastoma Cells. [Related pubchem assays: 1827 (Project Summary), 1813 (Primary HTS)]; type: functional
# Exodeoxyribonuclease V = Exodeoxyribonuclease V (Escherichia coli (strain K12), UniProt P04993+P07648+P08394); test: E. coli RecBCD inhibitors, dose response, counter-screen for AddAB inhibitor project, absorbance, V66 E. coli, mutant T4 phage (AID 492957); type: functional, cell-based, Escherichia coli str. K-12 substr. MG1655
# Sequence of Exodeoxyribonuclease V (P04993 whole entry): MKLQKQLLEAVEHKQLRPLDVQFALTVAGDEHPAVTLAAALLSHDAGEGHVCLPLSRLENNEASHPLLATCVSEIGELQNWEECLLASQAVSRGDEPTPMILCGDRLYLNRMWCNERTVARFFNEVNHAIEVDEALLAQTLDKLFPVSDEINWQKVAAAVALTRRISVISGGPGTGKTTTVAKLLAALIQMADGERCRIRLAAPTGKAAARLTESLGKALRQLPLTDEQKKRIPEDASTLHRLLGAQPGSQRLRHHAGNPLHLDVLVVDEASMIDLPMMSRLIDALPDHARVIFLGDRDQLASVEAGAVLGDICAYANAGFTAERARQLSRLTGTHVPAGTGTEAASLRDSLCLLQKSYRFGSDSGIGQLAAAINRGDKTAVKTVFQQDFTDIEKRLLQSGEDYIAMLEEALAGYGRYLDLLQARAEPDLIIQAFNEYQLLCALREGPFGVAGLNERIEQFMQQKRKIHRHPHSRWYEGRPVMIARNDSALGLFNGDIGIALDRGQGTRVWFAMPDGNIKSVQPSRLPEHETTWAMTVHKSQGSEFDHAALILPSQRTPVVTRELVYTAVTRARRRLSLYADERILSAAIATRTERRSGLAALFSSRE
# Sequence of Exodeoxyribonuclease V (P07648 whole entry): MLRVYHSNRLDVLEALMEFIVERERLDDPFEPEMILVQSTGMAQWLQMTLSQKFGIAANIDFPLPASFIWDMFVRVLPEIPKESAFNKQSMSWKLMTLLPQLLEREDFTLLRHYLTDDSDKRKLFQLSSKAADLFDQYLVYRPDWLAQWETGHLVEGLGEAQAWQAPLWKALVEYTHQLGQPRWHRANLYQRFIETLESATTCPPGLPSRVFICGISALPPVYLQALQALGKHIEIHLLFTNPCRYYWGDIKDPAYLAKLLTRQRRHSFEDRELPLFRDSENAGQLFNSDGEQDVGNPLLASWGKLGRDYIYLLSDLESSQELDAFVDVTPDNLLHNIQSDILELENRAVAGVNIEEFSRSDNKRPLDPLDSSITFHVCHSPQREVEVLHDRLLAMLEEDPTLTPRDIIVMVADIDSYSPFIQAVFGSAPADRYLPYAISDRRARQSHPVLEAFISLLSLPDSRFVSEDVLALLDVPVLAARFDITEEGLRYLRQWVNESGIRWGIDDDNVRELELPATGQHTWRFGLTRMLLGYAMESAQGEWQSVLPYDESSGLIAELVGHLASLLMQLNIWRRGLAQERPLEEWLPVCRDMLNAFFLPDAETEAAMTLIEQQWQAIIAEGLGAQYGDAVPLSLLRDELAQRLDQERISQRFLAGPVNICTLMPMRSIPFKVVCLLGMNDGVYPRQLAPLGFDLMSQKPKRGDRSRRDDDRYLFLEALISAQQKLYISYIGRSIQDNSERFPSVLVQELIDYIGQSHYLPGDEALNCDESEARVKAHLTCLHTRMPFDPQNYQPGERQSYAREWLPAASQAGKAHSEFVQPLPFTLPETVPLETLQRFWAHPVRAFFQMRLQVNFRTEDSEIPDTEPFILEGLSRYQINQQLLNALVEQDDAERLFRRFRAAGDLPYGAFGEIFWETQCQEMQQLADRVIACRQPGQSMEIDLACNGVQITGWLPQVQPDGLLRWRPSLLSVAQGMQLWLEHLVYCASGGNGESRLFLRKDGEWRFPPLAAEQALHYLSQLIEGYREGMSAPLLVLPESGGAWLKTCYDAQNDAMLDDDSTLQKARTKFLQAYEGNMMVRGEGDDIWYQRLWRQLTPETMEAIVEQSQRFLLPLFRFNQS
# Sequence of Exodeoxyribonuclease V (P08394 whole entry): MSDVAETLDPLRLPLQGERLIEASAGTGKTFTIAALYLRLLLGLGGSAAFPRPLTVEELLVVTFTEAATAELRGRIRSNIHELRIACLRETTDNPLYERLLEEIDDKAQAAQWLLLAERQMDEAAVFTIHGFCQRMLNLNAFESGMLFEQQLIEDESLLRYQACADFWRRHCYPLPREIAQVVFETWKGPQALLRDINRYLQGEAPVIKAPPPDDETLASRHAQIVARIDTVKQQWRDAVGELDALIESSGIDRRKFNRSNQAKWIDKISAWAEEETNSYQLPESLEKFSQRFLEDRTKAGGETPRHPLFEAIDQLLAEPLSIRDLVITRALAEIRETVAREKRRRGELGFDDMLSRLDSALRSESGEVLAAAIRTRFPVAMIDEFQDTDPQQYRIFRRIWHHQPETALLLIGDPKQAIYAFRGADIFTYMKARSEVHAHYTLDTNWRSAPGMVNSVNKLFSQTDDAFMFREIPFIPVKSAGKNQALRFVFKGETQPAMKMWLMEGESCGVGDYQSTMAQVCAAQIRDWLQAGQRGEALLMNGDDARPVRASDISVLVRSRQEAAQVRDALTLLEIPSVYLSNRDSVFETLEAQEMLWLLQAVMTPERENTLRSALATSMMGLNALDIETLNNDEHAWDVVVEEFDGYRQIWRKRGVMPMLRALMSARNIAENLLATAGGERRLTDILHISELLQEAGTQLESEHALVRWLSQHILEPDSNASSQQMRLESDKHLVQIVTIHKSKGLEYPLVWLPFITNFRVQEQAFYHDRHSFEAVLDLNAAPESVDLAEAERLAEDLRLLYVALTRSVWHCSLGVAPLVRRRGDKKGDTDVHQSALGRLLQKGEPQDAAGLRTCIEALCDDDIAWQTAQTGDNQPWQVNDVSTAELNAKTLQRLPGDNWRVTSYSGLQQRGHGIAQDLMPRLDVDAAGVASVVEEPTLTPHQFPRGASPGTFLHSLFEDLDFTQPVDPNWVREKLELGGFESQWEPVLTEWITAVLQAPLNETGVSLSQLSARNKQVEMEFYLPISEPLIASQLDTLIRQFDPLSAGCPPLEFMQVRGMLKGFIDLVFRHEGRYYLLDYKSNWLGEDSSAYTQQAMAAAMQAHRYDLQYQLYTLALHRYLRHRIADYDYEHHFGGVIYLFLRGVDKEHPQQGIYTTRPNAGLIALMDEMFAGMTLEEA
# Vero [29] = test: cells; type: functional; settings: Chlorocebus sabaeus
# [30] = inhibitors of SNCA 5'UTR-driven translation, confirmation, luminescence, H4 neuroglioblastoma cells, dose confirmation (AID 2454); type: functional, cell-based;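 note: H4 neuroglioblastoma cells carrying an alpha-synuclein 5'UTR luciferase reporter; potency for inhibition of the luciferase signal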
# [31] = insulin promoter down-regulators in MIN6 cells, imaging, high-content screening, mouse beta cells (AID 1628); type: functional
# [32] = cytotoxicity in HEK-293T cells, dose response, cytotoxicity control for TCR NF-kB inhibitor project, luminescence, T-cell screen hits (AID 489026); type: functional, cell-based;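 note: cells exposed to compound about 14 hours before the viability readout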
# cells [33] = type: functional, cell-based
# [34] = inhibitors of SNCA 5'UTR-driven reporter translation, confirmation, H4 neuroglioma cells, luminescence (AID 1988); type: functional, cell-based
# [35] = cytotoxicity in MIN6 insulinoma cells, dose response, cytotoxicity control, cell-based, mouse insulinoma (AID 2122); type: functional;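 note: confirmatory high-throughput counterscreen run to flag cytotoxic compounds; mouse MIN-6 beta cells carrying an insulin promoter eGFP reporter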
# Streptococcus = test: Group A Streptococcus viability loss, dose response, counter-screen for streptokinase expression inhibitor project, luminescence, BacTiterGlo (AID 1915); type: functional, organism-based;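 note: potency for reduction of bacterial viability or growth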
# Vero [36] = test: cells; type: functional, cell-based; settings: Chlorocebus sabaeus
# [37] = inhibitors of firefly luciferase expression or activity, dose response, H4 neuroglioma cells, luminescence (AID 1990); type: functional, cell-based
compound,measurement,setting,value
Cc1ccccc1OCC(O)Cn1c(=N)n(Cc2ccccc2)c2ccccc21 (stereo unspecified),IC50,cells [1],18.5 µM (active)
same,EC50,[2],> 30 µM (not active)
same,EC50,Mu-type opioid receptor,> 92.5 µM (inactive)
same,EC50,[3],> 92.5 µM (inactive)
same,AC50,[4],11.2 µM (active)
same,CC50,[5],8.06 µM (active)
same,AC50,[6],2.25 µM (active)
same,CC50,[7],19.9 µM (active)
same,EC50,[8],2.75 µM (active)
same,AC50,[9],1.49 µM (active)
same,EC50,[10],> 92.5 µM (inactive)
same,EC50,[11],1.06 µM (active)
same,EC50,[12],3.35 µM (active)
same,CC50,[13],7.48 µM (active)
CCCCNCC,AC50,[14],31.6 µM (inconclusive)
Cn1c(=O)n(C)c2cc(S(=O)(=O)N3CCCc4ccccc43)ccc21,EC50,HEK293 [15],> 59.6 µM (inactive)
same,EC50,HEK293 [16],> 59.6 µM (inactive)
same,IC50,[17],7.05 µM (not active)
COc1ccc(-c2nnc(-c3ccc4ccccc4c3)o2)cc1,AC50,HeLa,> 350 µM (inactive)
Oc1ccccc1N=Nc1nc(-c2ccccc2)c(-c2ccccc2)[nH]1,EC50,BJ [18],0.951 µM (active)
same,EC50,BJ [19],0.118 µM (active)
same,IC50,[20],> 119 µM (inactive)
same,AC50,[21],2.29 µM (active)
same,EC50,BJ [22],1.67 µM (active)
same,EC50,BJ [23],0.643 µM (inconclusive)
same,EC50,[24],0.282 µM (active)
same,EC50,[25],0.278 µM (active)
same,EC50,[26],0.515 µM (active)
same,EC50,[27],26 µM (active)
same,EC50,[28],0.103 µM (active)
same,IC50,Exodeoxyribonuclease V,> 119 µM (inactive)
same,CC50,Vero [29],0.06 µM (active)
same,EC50,[30],0.507 µM (active)
same,IC50,[31],0.533 µM (active)
same,IC50,[32],> 80 µM (inactive)
same,EC50,cells [33],0.355 µM (active)
same,EC50,[34],< 0.1 µM (active)
same,IC50,[35],0.82 µM (active)
same,EC50,Streptococcus,1.05 µM (active)
same,IC50,Vero [36],> 25 µM (active)
same,EC50,[37],< 0.1 µM (active)
